Results published in article PMC9131373 (Drug testing and analysis, 2021).
Values joined by “and” are separate entries in the source; they are usually repeats but may differ in a detail not shown here. Equal values may be shown once. Read-outs that look alike come from different tables or passages of the source.

What was measured:
[1] = cited from earlier work; for Intracellular TFV-DP levels, higher: than levels without boosting
[2] = Stability of TFV and FTC in stock solutions, processed samples and hair; assay type: physicochemical; conditions: for Stability in processed samples: a week in a refrigerator at 4°C; for Time stable in hair samples: room temperature, deviation less than ±15%
[3] = TFV and FTC concentrations in participant hair samples by LC/MS/MS; assay type: in vivo, human; conditions: for Difference of average hair concentration, TAF versus TDF: those on TAF relative to those on TDF
[4] = TDF/FTC to HIV-noninfected volunteers, directly-observed, 7 days a week; cited from earlier work
[5] = Plasma pharmacokinetics of TFV after TDF or TAF; assay type: in vivo, human; conditions: from ref 75 and ref 76
[6] = MSM on TAF/FTC/COBI/EVG versus TDF/FTC; cited from earlier work
[7] = cited from earlier work
[8] = cited from earlier work; remark: listed apart in the source
[9] = 200 μg/ml in 50% MeOH, at least 6 h at room temperature
[10] = 6 participants on TAF/FTC-based ART
[11] = 10 participants on TDF/FTC-based ART
[12] = TAF-based ART, with booster (COBI or RTV)
[13] = TDF-based ART, not receiving boosters
[14] = TDF-based ART, receiving boosters (COBI or RTV)
[15] = average of original and repeated, one line per patient
[16] = both TDF- and TAF-containing ART, not on booster drugs
[17] = both TDF- and TAF-containing ART, on concomitant boosters (COBI or RTV)
[18] = TAF-based versus TDF-based regimen with darunavir/COBI/FTC
[19] = plasma, TAF (8 mg) compared with TDF (300 mg)
[20] = plasma, TAF (25 mg) compared with TDF (300 mg)
[21] = plasma, from TAF with darunavir/COBI/FTC
[22] = plasma, from TDF with darunavir/COBI/FTC

SMILES	Stock solution stability [2, 9] [%]	Average hair concentration [3, 10]	Average hair concentration [3, 11]	Hair concentration [3, 12] [ng/mg hair]	Hair concentration ([3]; TAF-based ART, without booster) [ng/mg hair]	Hair concentration [3, 13] [ng/mg hair]	Hair concentration ([3]; TDF-based ART, receiving COBI) [ng/mg hair]	Hair concentration ([3]; TDF-based ART, receiving RTV) [ng/mg hair]	Hair concentration [3, 14] [ng/mg hair]	Hair concentration [3, 16] [ng/mg hair]	Hair concentration [3, 17] [ng/mg hair]	Difference of average hair concentration, TAF versus TDF [3] [%]	Stability in processed samples [2] [%]	Stock solution stability ([2]; at least 1 year at 4°C) [%]	Time stable in hair samples [2]	acidic pKa [8]	further results
CC(Cn1cnc2c(N)ncnc21)OCP(=O)(O)OP(=O)(O)OP(=O)(O)O (stereo in doubt) [TFV-DP, tenofovir diphosphate]	–	–	–	–	–	–	–	–	–	–	–	–	–	–	–	–	Intracellular TFV-DP levels, higher ([1]; EVG/COBI/TAF/FTC): 5.3 fold; AUC of TFV-DP in PBMCs, higher than on TDF ([1]; TAF 8 mg versus TDF): 16.7%; AUC of TFV-DP in PBMCs, higher than on TDF ([1]; TAF 25 mg versus TDF): 613%; Intracellular TFV-DP levels, higher ([1]; darunavir/COBI/TAF/FTC): 652%
Nc1[15n][13c](=O)[15n]([C@@H]2CS[C@H](CO)O2)cc1F [FTC-^13C,^15N2, emtricitabine-^13C,^15N2]	> 95.0	–	–	–	–	–	–	–	–	–	–	–	–	–	–	–	–
C[C@H](Cn1cnc2c(N)ncnc21)OCP(=O)(O)O [TFV, Tenofovir]	> 95.0	0.0379 ± 0.0139 ng/mg hair and 0.0379 ng/mg hair	0.0553 ± 0.0318 ng/mg hair and 0.0553 ng/mg hair	0.0389 ± 0.0117	0.0370 ± 0.0185	0.0483 ± 0.0327	0.0844 ± 0.0357	0.0388 ± 0.0146	0.0584 ± 0.0336	0.0426 ± 0.0246	0.0525 ± 0.0295	−31.5	> 95.0	> 95.0	at least 18 months	1.61	TFV normalized average concentration, Average concentration [3, 15]: 0.0500 ng/mg hair and 0.0698 ng/mg hair and 0.0375 ng/mg hair and 0.0186 ng/mg hair and 0.0973 ng/mg hair and 0.0289 ng/mg hair and 0.0850 ng/mg hair and 0.0304 ng/mg hair and 0.0274 ng/mg hair and 0.0468 ng/mg hair; median TFV hair concentration [4]: 0.038 ng/mg hair; intracellular TFV concentration, increase ([1]; after switching from EVG/COBI/TDF/FTC to EVG/COBI/TAF/FTC): 141%; plasma AUC of TFV, boosted versus non-boosted, higher ([5]; TAF co-administrated with darunavir/COBI): approximately 5 times; plasma AUC of TFV, boosted versus non-boosted, higher ([5]; TDF co-administrated with darunavir/COBI): 1.95 times; Median urine TFV concentrations, lower on TAF-based regimen than on TDF [6]: approximately 14 times; plasma Cmax, lower ([7]; 25 mg TAF compared with 300 mg TDF): 17 times; plasma exposure of TFV, lower ([7]; EVG/COBI/TAF/FTC compared to EVG/COBI/TDF/FTC): 91%; TFV concentrations in the plasma with TAF lower than with TDF ([7]; TAF versus TDF): 4 fold; TFV exposure in plasma, decrease ([7]; TAF-based compared with TDF-based treatment): approximately 90%; AUC of TFV, decrease [7, 18]: 90.9%; Cmax of TFV, decrease [7, 18]: 95.5%; AUC of TFV, decrease [7, 19]: 96.6%; Cmax of TFV, decrease [7, 19]: 98.3%; AUC of TFV, decrease [7, 20]: 86.0%; Cmax of TFV, decrease [7, 20]: 93.6%; AUC of TFV [7, 21]: 339 ng·h/mL; Cmax of TFV [7, 21]: 18.8 ng/mL; AUC of TFV [7, 22]: 3737 ng·h/mL; Cmax of TFV [7, 22]: 413 ng/mL
Nc1nc(=O)n([C@@H]2CS[C@H](CO)O2)cc1F [FTC, emtricitabine]	> 95.0	1.04 ± 0.83 ng/mg hair and 1.04 ng/mg hair	0.846 ± 0.659 ng/mg hair and 0.846 ng/mg hair	0.705 ± 0.233	1.37 ± 1.16	0.428 ± 0.343	1.26 ± 0.59	0.851 ± 0.807	1.03 ± 0.70	0.898 ± 0.925	0.930 ± 0.601	22.9	> 95.0	> 95.0	at least 18 months	13.83	FTC normalized average concentration, Average concentration [3, 15]: 0.988 ng/mg hair and 2.76 ng/mg hair and 1.05 ng/mg hair and 0.412 ng/mg hair and 1.86 ng/mg hair and 0.146 ng/mg hair and 0.840 ng/mg hair and 0.348 ng/mg hair and 0.694 ng/mg hair and 0.502 ng/mg hair; Median urine FTC concentrations between regimens [6]: not different; basic pKa [8]: 2.4
CC(Cn1cnc2c(N)ncnc21)OCP(=O)(O)O (stereo not shown) [TFV-d6, Tenofovir-d6]	> 95.0	–	–	–	–	–	–	–	–	–	–	–	–	–	–	–	–
